Here are results for two compounds from patent US20250100977A1, “MERCAPTOPYRIMIDINE COMPOUNDS THAT INHIBIT NONHOMOLOGOUS END JOINING AND METHODS THEREOF” (INDIAN INSTITUTE OF SCIENCE, priority 2021, published 2025).

In one series the test system is cancer cells. Nature of the series: Cytotoxicity in combination with radiation or chemotherapeutic agents. Type of series: cell-based. To be noted: combined with 0.5 and 1 Gy γ-radiation, or 5-FU and etoposide. The procedure:
FIG. 7(A-F) depicts evaluation of generation of double-strand breaks inside cells treated with compounds SCR116 and SCR132 alone or in combination, A. Immunofluorescence with 53BP1 in HeLa cells treated with increasing concentration of SCR116 (2 and 5 μM) and SCR132 (1 and 2 μM). Nucleus is stained in red using propidium iodide, while green signal represents 53BP1 foci (FITC). B. Quantification of 53BP1 foci inside HeLa cells treated with SCR116 and SCR132 for 24 h, as denoted using scatter plot. Significance was calculated using ANOVA in GraphPad Prism software (ns, not significant; *p<0.05, **p<0.005, ***p<0.0001). C-D. Bar graphs showing percentage of viable cells following treatment with the compounds alone, or in presence of γ-radiation (0.5 Gy) at 24 (C) and 48 h (D). 2 and 4 μM SCR116, and 1 and 2 μM SCR132 were used. E. Bar graph showing percentage of viable cells following treatment with SCR116 (0.375 μM) or SCR132 (0.125 μM) alone, or in presence of 0.25 μM etoposide at 48 h. F. Bar graph showing percentage of viable cells following treatment with SCR116 (0.375 μM) or SCR132 (0.125 μM) alone, or in presence of 0.375 μM 5-FU at 48 h, in accordance with an implementation of the present disclosure.

Another series has as its system HeLa cells. Nature of the series: Neutral comet assay in HeLa cells. Type of series: cell-based. As to conditions: 24 h; SCR116 5 μM, SCR132 2 μM; radiation 0.5 Gy; vs control. As for the experimental part:
FIG. 8(A-B) depicts accumulation of DSBs inside cells following treatment with the compounds. A. Representative images for HeLa cells subjected to neutral comet assay following treatment with SCR116 and SCR132 for 24 h. […] FIG. 8C, D are representative images for Nalm6 cells (C) and N114 cells (D) following treatment with SCR116 and SCR132 for 24 h. and FIG. 8E, F are scatter plot depicting quantification of percentage of 53BP1 foci treated with SCR116 (2, 5 μM) and SCR132 (1, 2 μM) in Nalm6 and N114.

In series [1] the test system is V(D)J recombination in Nalm6 (pGG51). Nature of the series: V(D)J recombination in Nalm6 using pGG51. As to conditions: for Fold reduction in recombination efficiency: vs vehicle control. Type of series: cell-based. As for the experimental part: (§1) Evaluation of efficiency of V(D)J recombination following treatment with SCR116 and SCR132 was carried out as depicted in FIGS. 6(A-C). Tables 4 and 5 summarize the effect of SCR116 (1 and 2 μM) and SCR132 (0.5 and 1 μM) on V(D)J recombination in Nalm6 using pGG49 and pGG51, respectively.

The next series relates to EAC. In words: Cytotoxicity in EAC. Type of series: cell-based, mice. To be noted: Mus musculus; Table 2; read-out: IC50 in cancer cell lines, EAC. The procedure: (§2) Ligase IV specificity of the compounds of the present invention inside the cells were also determined using Ligase IV knock out (KO) cell line N114 compared to the wild type Nalm6 (Table 2, FIGS. 5C, D, E and F). […] Table 1 showing IC50 of SCR7 derivatives in cancer cell lines Nalm6 and HeLa. IC50 was calculated using GraphPad Prism software from the percentage of viable cells following treatment with the compounds at 48 h. Table 2 showing IC50 of SCR116 and SCR132 in a panel of 16 cancer cell lines.

In a further series the test system is HeLa. Nature of the series: Cytotoxicity (viable cells) in HeLa. Type of series: cell-based. To be noted: read-out: IC50 in cancer cell lines, HeLa. The procedure: The compounds of the present invention were screened initially in leukemic and cervical cancer cell lines (Table 1). […] In cervical cancer cell line HeLa, IC50 was 5 and 2 μM, respectively for SCR116 and SCR132 (FIG. 5A-B).
as §2

The next series has as its system Supt1. Nature of the series: Cytotoxicity in Supt1. As to conditions: Homo sapiens, SUP-T1; Table 2; read-out: IC50 in cancer cell lines, Supt1. Type of series: cell-based. As for the experimental part: as §2
Series [2] deals with V(D)J recombination in Nalm6 (pGG49). Nature of the series: V(D)J recombination in Nalm6 using pGG49. Type of series: cell-based. As to conditions: for Fold reduction in recombination efficiency: vs vehicle control. As for the experimental part:
as §1

The target of a further series is T1, Ligase III/XRCC1 (Homo sapiens, UniProt P49916).
T1 construct: made in house
T1 sequence (P49916 43-1009): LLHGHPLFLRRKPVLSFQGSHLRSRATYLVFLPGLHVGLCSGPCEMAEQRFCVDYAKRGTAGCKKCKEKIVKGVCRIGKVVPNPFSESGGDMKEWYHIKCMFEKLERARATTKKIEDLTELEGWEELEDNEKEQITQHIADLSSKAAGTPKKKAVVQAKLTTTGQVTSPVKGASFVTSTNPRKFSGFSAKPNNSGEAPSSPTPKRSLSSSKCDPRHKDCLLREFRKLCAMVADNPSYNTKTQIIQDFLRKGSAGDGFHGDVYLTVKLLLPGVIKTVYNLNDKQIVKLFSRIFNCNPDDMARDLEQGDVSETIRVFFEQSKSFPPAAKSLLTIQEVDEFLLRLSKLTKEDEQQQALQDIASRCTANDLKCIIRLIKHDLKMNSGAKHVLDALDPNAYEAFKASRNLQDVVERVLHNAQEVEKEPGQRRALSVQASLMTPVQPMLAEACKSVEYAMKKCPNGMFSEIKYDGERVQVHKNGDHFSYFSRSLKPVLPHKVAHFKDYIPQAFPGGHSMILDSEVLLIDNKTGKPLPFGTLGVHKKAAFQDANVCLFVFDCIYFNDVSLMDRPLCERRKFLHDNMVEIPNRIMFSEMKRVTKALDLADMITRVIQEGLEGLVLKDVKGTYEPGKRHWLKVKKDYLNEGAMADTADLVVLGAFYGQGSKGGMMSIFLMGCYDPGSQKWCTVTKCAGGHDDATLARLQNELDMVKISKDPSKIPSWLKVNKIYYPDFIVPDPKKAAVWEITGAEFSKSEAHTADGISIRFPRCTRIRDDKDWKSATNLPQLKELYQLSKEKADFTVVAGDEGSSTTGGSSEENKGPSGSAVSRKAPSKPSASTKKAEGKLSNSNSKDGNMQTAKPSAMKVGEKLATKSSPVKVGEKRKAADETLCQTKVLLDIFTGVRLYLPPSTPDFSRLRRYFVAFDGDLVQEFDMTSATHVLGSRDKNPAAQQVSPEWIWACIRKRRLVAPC
T1 sequence (P18887 whole entry partner): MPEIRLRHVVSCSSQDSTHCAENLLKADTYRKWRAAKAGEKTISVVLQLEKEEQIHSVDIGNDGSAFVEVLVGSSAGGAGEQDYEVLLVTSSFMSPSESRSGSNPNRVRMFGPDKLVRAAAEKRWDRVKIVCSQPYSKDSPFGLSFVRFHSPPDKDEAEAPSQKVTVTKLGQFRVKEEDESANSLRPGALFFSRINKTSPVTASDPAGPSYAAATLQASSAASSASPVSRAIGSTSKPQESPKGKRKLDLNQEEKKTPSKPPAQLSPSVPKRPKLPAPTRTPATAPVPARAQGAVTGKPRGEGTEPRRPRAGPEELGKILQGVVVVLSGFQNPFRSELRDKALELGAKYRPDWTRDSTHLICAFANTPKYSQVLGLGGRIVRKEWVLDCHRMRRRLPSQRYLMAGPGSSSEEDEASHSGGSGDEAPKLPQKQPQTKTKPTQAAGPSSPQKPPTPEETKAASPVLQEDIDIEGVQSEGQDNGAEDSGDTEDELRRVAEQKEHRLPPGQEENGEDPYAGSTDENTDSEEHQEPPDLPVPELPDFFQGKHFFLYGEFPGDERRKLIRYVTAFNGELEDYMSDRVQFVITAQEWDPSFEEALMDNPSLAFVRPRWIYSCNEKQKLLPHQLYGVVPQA
In words: Inhibition of end joining by purified Ligase III/XRCC1. Type of series: biochemical. To be noted: 50, 100, 200, 500, 1000 μM. As for the experimental part:
The compounds of the present invention were analysed for inhibition of end joining with purified Ligase I (FIG. 3A) and Ligase III/XRCC1 (FIG. 3F). The compounds were incubated with either purified Ligase I (FIG. 3B-E) or with Ligase III/XRCC1 (FIGS. 3G-J) in suitable NHEJ buffer at 25° C. for 30 min, followed by addition of radiolabeled DNA, and further incubation for 1 h at 25° C. Products were purified using phenol: chloroform, and run on denaturing PAGE.
Effects of these compounds on NHEJ and Ligase IV mediated joining were evaluated (FIG. 4A-K). The reactions were terminated by EDTA (10 mM), products were purified using phenol/chloroform, precipitated with chilled ethanol and glycogen, and resolved on 8% denaturing PAGE. The gel was dried, exposed, and signal was detected using phosphor Imager FLA9000 (Fuji, Japan), and quantified in MultiGauge software expressed as Photo Stimulated Luminescence Units (PSLU). Inhibition of end joining was reported at 200 μM and 100 μM, respectively for SCR116 and SCR132 (FIGS. 4A, B, C and D), with >50% inhibition at 200 and 100 μM concentrations, respectively. […] FIG. 4K depict the purification profile of Ligase IV and XRCC4. […]

A further series concerns L1210. Nature of the series: Cytotoxicity in L1210. As to conditions: Mus musculus, L1210; Table 2; read-out: IC50 in cancer cell lines, L1210. Type of series: cell-based. The procedure:
as §2

Where [3] appears, read: Homo sapiens, HeLa, 48 h, Table 1, 48 h.

Several values for one entry are separate records, joined by “and”; a condition that tells them apart may be missing. Identical values can stand only once. Like-named read-outs stand apart in the source and are kept apart here.

On to `Nc1nc(S)nc(O)c1/N=C/c1ccc([N+](=O)[O-])s1` [Compound 16, (E)-6-amino-2-mercapto-5-(((5-nitrothiophen-2-yl)methylene)amino)pyrimidin-4-ol], for which the Cytotoxicity in combination result in the series on cancer cells is given as “Increased cytotoxicity”. Moreover, the “DNA in the tail of the comet” value with HeLa cells was “increased amount of DNA in the tail of the comet”. Besides, the “Recombination efficiency (CA/A) ×100” value in series [1] (1 μM) amounted to 0.030; in series [1] (2 μM), 0.005; in [2] (1 μM), 0.050; in series [2] (2 μM), 0.013. The “Fold reduction in recombination efficiency” value in [1] (1 μM, listed as SCR116) is 9 fold and 9.0 fold; in series [1] (2 μM, listed as SCR116), 54 fold and 54.0 fold; in series [2] (1 μM), 5.2 fold; in series [2] (2 μM, listed as SCR116) it was 20 fold and 20.0 fold. Besides, the IC50 in the series with EAC is 16.5 µM; in the series on HeLa (setting [3]), 5.92 µM; in the series on HeLa (Homo sapiens, HeLa, Table 2), 5 µM; in the series on Supt1, 1.32 µM; in the series on L1210 it was 3.75 µM. Also, the “Inhibition of end joining with Ligase III/XRCC1” value on Ligase III/XRCC1 was “inhibited end joining at highest concentrations of 500 and 1000 μM”.
As for `Nc1nc(S)nc(O)c1/N=C/c1sc(Cl)nc1Cl` [Compound 32, (E)-6-amino-5-(((2,4-dichlorothiazol-5-yl)methylene)amino)-2-mercaptopyrimidin-4-ol], the Cytotoxicity in combination entry with cancer cells is “Increased cytotoxicity”. Further, the “DNA in the tail of the comet” value in the series on HeLa cells is “increased amount of DNA in the tail of the comet”. Also, the “Recombination efficiency (CA/A) ×100” value in series [1] (0.5 μM) was found to be 0.006; in series [1] (1 μM) it was 0.003; in [2] (0.5 μM) it was 0.030; in [2] (1 μM), 0.009. The “Fold reduction in recombination efficiency” value in series [1] (0.5 μM, listed as SCR132) was 50 fold and 50.0 fold; in [1] (1 μM, listed as SCR132), 106 fold and 106.6 fold; in series [2] (0.5 μM), 9.3 fold; in [2] (1 μM) it was 31.1 fold. Besides, the IC50 with EAC was determined as 14.8 µM; with HeLa (setting [3]) it was 2.08 µM; with HeLa (Homo sapiens, HeLa, Table 2), 2 µM; in the series on HeLa (Table 2, listed as SCR132), 2.08 µM; with Supt1 it was 0.734 µM; in the series with L1210, 0.879 µM. On Ligase III/XRCC1, the “Inhibition of end joining with Ligase III/XRCC1” value is recorded as “no significant inhibition”.

Usually IC50 stands for the point on the concentration scale where inhibition reaches its midpoint.
